Assay results reported in patent US10966993B2, “Pharmaceutical composition comprising a sulfonylurea drug and preparation method thereof” (JIANGSU AOSAIKANG PHARMACEUTICAL CO., LTD., priority 2016, dated 2021).
Values after ≈ are worked out from the molar mass of the structure shown. Read-outs that look alike come from different tables or passages of the source.

Assay: Test on the solubility of glibenclamide in additive/cyclodextrin solutions
Format: physicochemical
Details: 25 °C, thermodynamic from solid
Procedure: An excess amount of glibenclamide powder was added into an aqueous solution comprising different proportion of additive (e.g., meglumine, sodium carbonate, sodium hydrogen carbonate or sodium hydroxide) and cyclodextrin (hydroxypropyl-β-cyclodextrin) to form a suspension. The suspension was placed in a constant shaking incubator, and shaken for 1 h at 25±1° C. The shaken suspension was filtered with a 0.45 μm hydrophilic filter membrane, with the primary filtrate being disposed and the subsequent filtrate being collected. The subsequent filtrate was diluted to appropriate times with a PBS buffer having a pH of 7.4, the absorbance of the diluted subsequent filtrate was determined at a wavelength of 225 nm, and the solubility of glibenclamide in the diluted subsequent filtrate was calculated according to the absorbance. Corresponding solubility curves were plotted with the solubility of glibenclamide as the vertical axis and the concentration of cyclodextrin and/or meglumine as the horizontal axis.

## COc1ccc(Cl)cc1C(=O)NCCc1ccc(S(=O)(=O)NC(=O)NC2CCCCC2)cc1 [glibenclamide, 5-chloro-N-(4-[N-(cyclohexylcarbamoyl)aminosulfonyl]phenethyl)-2-methoxybenzamide]
Aqueous buffer, meglumine 0.1% (w/v), cyclodextrin 0% (w/v), read-out: Solubility
  solubility at 1 h: 960 µg/mL (≈ 1.94 mM)
Aqueous buffer, meglumine 0.5% (w/v), cyclodextrin 0% (w/v), read-out: Solubility
  solubility at 1 h: 1760 µg/mL (≈ 3.56 mM)
Aqueous buffer, meglumine 1% (w/v), cyclodextrin 0% (w/v), read-out: Solubility
  solubility at 1 h: 4930 µg/mL (≈ 9.98 mM)
Aqueous buffer, meglumine 2.5% (w/v), cyclodextrin 0% (w/v), read-out: Solubility
  solubility at 1 h: 8030 µg/mL (≈ 16.3 mM)
Aqueous with cosolvent or surfactant or cyclodextrin, cyclodextrin only, from 0.5% (w/v) to 40% (w/v), read-out: water solubility of glibenclamide
  solubility at 1 h: 1.3 to 120 µg/mL (≈ 0.00263 to 0.243 mM)
Aqueous with cosolvent or surfactant or cyclodextrin, meglumine 0% (w/v), 2-hydroxypropyl-β-cyclodextrin 0.5% (w/v), read-out: Solubility
  solubility at 1 h: 1.3 µg/mL (≈ 0.00263 mM)
Aqueous with cosolvent or surfactant or cyclodextrin, meglumine 0% (w/v), 2-hydroxypropyl-β-cyclodextrin 1.25% (w/v), read-out: Solubility
  solubility at 1 h: 3.1 µg/mL (≈ 0.00628 mM)
Aqueous with cosolvent or surfactant or cyclodextrin, meglumine 0% (w/v), 2-hydroxypropyl-β-cyclodextrin 2.5% (w/v), read-out: Solubility
  solubility at 1 h: 5.8 µg/mL (≈ 0.0117 mM)
Aqueous with cosolvent or surfactant or cyclodextrin, meglumine 0% (w/v), 2-hydroxypropyl-β-cyclodextrin 5% (w/v), read-out: Solubility
  solubility at 1 h: 14 µg/mL (≈ 0.0283 mM)
Aqueous with cosolvent or surfactant or cyclodextrin, meglumine 0% (w/v), 2-hydroxypropyl-β-cyclodextrin 10% (w/v), read-out: Solubility
  solubility at 1 h: 32 µg/mL (≈ 0.0648 mM)
Aqueous with cosolvent or surfactant or cyclodextrin, meglumine 0.1% (w/v), 2-hydroxypropyl-β-cyclodextrin 0.5% (w/v), read-out: Solubility
  solubility at 1 h: 1250 µg/mL (≈ 2.53 mM)
Aqueous with cosolvent or surfactant or cyclodextrin, meglumine 0.1% (w/v), 2-hydroxypropyl-β-cyclodextrin 1.25% (w/v), read-out: Solubility
  solubility at 1 h: 1420 µg/mL (≈ 2.87 mM)
Aqueous with cosolvent or surfactant or cyclodextrin, meglumine 0.1% (w/v), 2-hydroxypropyl-β-cyclodextrin 2.5% (w/v), read-out: Solubility
  solubility at 1 h: 1660 µg/mL (≈ 3.36 mM)
Aqueous with cosolvent or surfactant or cyclodextrin, meglumine 0.1% (w/v), 2-hydroxypropyl-β-cyclodextrin 5% (w/v), read-out: Solubility
  solubility at 1 h: 2170 µg/mL (≈ 4.39 mM)
Aqueous with cosolvent or surfactant or cyclodextrin, meglumine 0.1% (w/v), 2-hydroxypropyl-β-cyclodextrin 10% (w/v), read-out: Solubility
  solubility at 1 h: 2170 µg/mL (≈ 4.39 mM)
Aqueous with cosolvent or surfactant or cyclodextrin, meglumine 0.1% (w/v), 2-hydroxypropyl-β-cyclodextrin 20% (w/v), read-out: Solubility
  solubility at 1 h: 2230 µg/mL (≈ 4.51 mM)
Aqueous with cosolvent or surfactant or cyclodextrin, meglumine 0.1% (w/v), 2-hydroxypropyl-β-cyclodextrin 30% (w/v), read-out: Solubility
  solubility at 1 h: 2210 µg/mL (≈ 4.47 mM)
Aqueous with cosolvent or surfactant or cyclodextrin, meglumine 0.1% (w/v), 2-hydroxypropyl-β-cyclodextrin 40% (w/v), read-out: Solubility
  solubility at 1 h: 2280 µg/mL (≈ 4.62 mM)
Aqueous with cosolvent or surfactant or cyclodextrin, meglumine 0.1% (w/v), cyclodextrin from 0.5% (w/v) to 5% (w/v), read-out: water solubility of glibenclamide
  solubility at 1 h: 1250 to 2170 µg/mL (≈ 2.53 to 4.39 mM)
Aqueous with cosolvent or surfactant or cyclodextrin, meglumine 0.1% (w/v), cyclodextrin from 5% (w/v) to 40% (w/v), read-out: solubility of glibenclamide
  solubility at 1 h: ~2170 µg/mL (≈ 4.39 mM)
Aqueous with cosolvent or surfactant or cyclodextrin, meglumine 5% (w/v), 2-hydroxypropyl-β-cyclodextrin 5% (w/v), read-out: Solubility
  solubility at 1 h: 25200 µg/mL (≈ 51.1 mM)
Aqueous with cosolvent or surfactant or cyclodextrin, meglumine 5% (w/v), 2-hydroxypropyl-β-cyclodextrin 10% (w/v), read-out: Solubility
  solubility at 1 h: 34400 µg/mL (≈ 69.7 mM)
Aqueous with cosolvent or surfactant or cyclodextrin, meglumine 5% (w/v), 2-hydroxypropyl-β-cyclodextrin 20% (w/v), read-out: Solubility
  solubility at 1 h: 42200 µg/mL (≈ 85.5 mM)
Aqueous with cosolvent or surfactant or cyclodextrin, meglumine 5% (w/v), 2-hydroxypropyl-β-cyclodextrin 30% (w/v), read-out: Solubility
  solubility at 1 h: 49400 µg/mL (≈ 99.9 mM)
Aqueous with cosolvent or surfactant or cyclodextrin, meglumine 5% (w/v), 2-hydroxypropyl-β-cyclodextrin 40% (w/v), read-out: Solubility
  solubility at 1 h: 51000 µg/mL (≈ 103 mM)
Aqueous with cosolvent or surfactant or cyclodextrin, meglumine 5% (w/v), cyclodextrin 0% (w/v), read-out: Solubility
  solubility at 1 h: 13000 µg/mL (≈ 26.4 mM)
Aqueous with cosolvent or surfactant or cyclodextrin, meglumine 5% (w/v), cyclodextrin from 5% (w/v) to 30% (w/v), read-out: water solubility of glibenclamide
  solubility at 1 h: 25200 to 49400 µg/mL (≈ 51.1 to 99.9 mM)
Aqueous with cosolvent or surfactant or cyclodextrin, meglumine 5% (w/v), cyclodextrin from 30% (w/v) to 40% (w/v), read-out: solubility of glibenclamide
  solubility at 1 h: ~49400 µg/mL (≈ 99.9 mM)
Aqueous with cosolvent or surfactant or cyclodextrin, meglumine 10% (w/v), cyclodextrin 0% (w/v), read-out: Solubility
  solubility at 1 h: 19000 µg/mL (≈ 38.6 mM)
Aqueous with cosolvent or surfactant or cyclodextrin, meglumine only, from 0.1% (w/v) to 10% (w/v), read-out: water solubility of glibenclamide
  solubility at 1 h: 960 to 19000 µg/mL (≈ 1.94 to 38.6 mM)
